Reference: patent US12370176B2, “Methods of use for KV7 channel activators” (Biohaven Therapeutics Ltd., priority 2019, dated 2025)

Assays:
KCNQ2 W236L = biological target: T1, KCNQ2 W236L (Homo sapiens, UniProt O43526, W236L); assay: Whole cell voltage-clamp, KCNQ2 W236L channels in CHO cells; assay type: cell-based
T1 construct: expressed in transfected cells; host or cells: CHO cells
Excerpt: (§1) Four highly recurrent KCNQ2-EE missense variants (FIG. 3), R210H (located in S4 of the voltage-sensor), T274M (located in the pore helix), A294V (located at the border of the pore loop and S6), and R581Q/L (located in the intracellular helix C), were introduced into KCNQ2 cDNA by QuikChange site-directed mutagenesis. R210H is in S4 of the voltage-sensor, T274M is in the pore helix, A294V is at the border of the pore loop and S6, and R581Q is in the intracellular helix C. Using lipid-mediated transfection, plasmids including the pathogenic variants were co-expressed with wildtype KCNQ2 or KCNQ2 and KCNQ3 subunits in Chinese hamster ovary (CHO) cells. The KCNQ2 S5 helix mutation W236L, which abolishes EZO modulation, was used to characterize Compound A binding. Whole cell voltage-clamp protocols were used to measure gating and conductance of wildtype channels and mutated subunit containing channels, before, during and after Compound A application via focal pipette perfusion.

[1] = biological target: T2, KCNQ2 homomers (Kv7.2 homomers) (Homo sapiens, UniProt O43526); assay: Whole cell voltage-clamp, wildtype KCNQ2 homomers expressed in CHO cells; assay type: cell-based; conditions: 10.0 μM ezogabine; FIG. 11
T2 construct: expressed in transfected cells; host or cells: CHO cells
Description: Biological Assay Methods—Using lipid mediated transfection, plasmids including only wildtype (wt) KCNQ2, only wt KCNQ3, or both wt KCNQ2 and wt KCNQ3 subunits were expressed in Chinese hamster ovary (CHO) cells. Whole cell voltage-clamp protocols were used to measure gating and conductance density of wt channels before, during and after test compound application via focal pipette perfusion. The half-activating voltage (V1/2) was determined by Boltzmann fits of the conductance-voltage (G/V) curves.
as §1, with “Whole cell voltage-clamp protocols were used to measure gating and conductance of wildtype channels and mutated subunit containing channels, before, during and after Compound A application via focal pipette perfusion.” left out

Compound: CCOC(=O)Nc1ccc(NCc2ccc(F)cc2)cc1N [EZO, ezogabine]
- current density (KCNQ2 W236L; W236L channels, 10.0 μM ezogabine, FIG. 14): did not affect
- dependence of KCNQ2 homomer activation on W236 (KCNQ2 W236L; wildtype KCNQ2 versus W236L): requires W236, like EZO
- current density [1]: increased
